Measured values as given in patent US5180742A, “Quinone derivatives, their production and use” (Takeda Chemical Industries, Ltd., priority 1984, dated 1993).

Legend:
[1] = test system: ischemic convulsive seizure due to bilateral common carotid artery ligation in SHR rats; experiment: Inhibitory action on induction of convulsive seizure in experimental cerebral infarction model of SHR rats; format: in vivo, spontaneously hypertensive rats; conditions: control 151 ± 5
Method: Inhibitory Action on Induction of Convulsive Seizure in an Experimental Cerebral Infarction Model of Spontaneously Hypertensive Rats
Cerebral ischemia was induced by simultaneous ligation of bilateral common carotid arteries in male spontaneously hypertensive (SHR) rats (about 22 weeks of age) under light pentobarbital anesthesia. Thereafter, over about 4 hours, the behaviour was observed under conscious state.
Test drugs were orally administered as a gum arabic suspension 1 hour before the ligation of bilateral common carotid arteries under an unanesthetized condition.

[2] = test system: SRS-A generation in the rat peritoneal cavity; experiment: Effects on immunologically stimulated generation of SRS-A in the rat peritoneal cavity; format: in vivo; conditions: 1 mg/kg intraperitoneal, 1 min before antigen
Method: Slow Reacting Substance of Anaphylaxis (SRS-A) Generation in Rat Peritoneal Cavity
Generation of SRS-A in rat peritoneal cavity was determined by the method of Orange et al. [J. Immunol., 105, 1087-1095 (1970)] Rat-anti-egg albumin antiserum wad diluted twice with saline, and 2 ml of it was intraperitoneally given to the rat. Two hours later, egg albumin 2 mg in 5 ml of Tyrode solution containing heparin ([…]) and gelatin (0.1%) was intraperitoneally administered. Fifteen minutes after the antigen challenge, the animals were killed by bleeding under ether anesthesia and the solution given into the peritoneal cavity was harvested. The solution was centrifuged at 900 g for 5 min. Two ml of the supernatent was mixed with 7 ml of cold absolute ethanol and the mixture stood for 30 min at 4° C. After centrifugation at 1,500 g for 10 min, the supernatant was evaporated. The residue was dissolved in 1 ml of saline. Amount of SRS-A was bioassayed using guinea pig ileum. Drug dissolved in a 1% dimethylsulfoxide was intraperitoneally given 1 min before the antigen challenge.

[3] = test system: lipid peroxides production in rat brain homogenates; experiment: Inhibitory action on lipid peroxides production in rat brain homogenates (thiobarbituric acid method); format: biochemical, rat (SD); conditions: n = 4-6
Method: Inhibitory Action on Lipid Peroxides Production in Rat Brain Homogenates
The male SD rat brain tissue was used as 5% homogenate in phosphate-buffered solution. After incubation of the homogenate for 1 hour at 37° C., the amount of lipid peroxides produced was determined by the thiobarbituric acid method according to the description of Ohkawa et al. (Analytical Biochemistry, 95: 551, 1979)
Test compounds were used as a solution of dimethylsulfoxide. The inhibitory action on lipid peroxide production was expressed as a % inhibition as compared with the amount of production in the vehicle group. Results

[4] = test system: PMA-stimulated release of O2^- in guinea pig peritoneal polymorphonuclear leukocytes; experiment: PMA-stimulated release of O2- in guinea pig peritoneal polymorphonuclear leukocytes (chemiluminescence); format: cell-based
Method: Luminol (3-aminophthaloylhydrazine), 10 nmole, and phorbol myristate acetate (PMA), 10 ng, were added to guinea pig peritoneal polymorphonuclear leukocytes (1.5×10^4 cells) suspended in Hanks' balanced salt solution-HEPES buffer (pH 7.4). A total volume of the reaction mixture was 0.1 ml. The chemiluminescence resulted from release of superoxide (O2^-) during 30 sec was measured continuously for 10 min at 37° C. using a chemiluminometer analyzer (Packard Pico-Lite). A peak value of the chemiluminescence was compared as an index of the release of O2^-, and the chemiluminecence inhibitable by superoxide dismutase (300 μg/ml) was measured as 100%. Compound No. 50 was added immediately before the addition of PMA.

**Q.** For `CC1=C(C)C(=O)C(C(CCCCCC(=O)O)c2ccccc2)=C(C)C1=O` (centres unmarked) [Compound No. 50, 7-(3,5,6-trimethyl-1,4-benzoquinon-2-yl)-7-phenylheptanoic acid], which “Time to appearance of convulsive seizure” value ([1]; 3 mg/kg oral) is on record?
**A.** The value was 204 ± 7 min.

**Q.** And the “Time to appearance of convulsive seizure” value ([1]; 10 mg/kg oral)?
**A.** The value was 220 ± 9 min.

**Q.** What about the “SRS-A generation, Inhibition (%)” value [2] of the same compound?
**A.** The value was 72%.

**Q.** What about the SRS-A generation ([2]; control 26.5 ± 3.9) of the same compound?
**A.** Its SRS-A generation is 7.5 ± 2.0 LTD4 ng/rat.

**Q.** What about the “Inhibition of lipid peroxides production” value ([3]; 10^-5 M) of the same compound?
**A.** Its value is 100 ± 0%.

**Q.** And the “Inhibition of lipid peroxides production” value ([3]; 10^-6 M)?
**A.** Its value is 66.6 ± 12.4%.

**Q.** What about the “Inhibition of lipid peroxides production” value ([3]; 10^-7 M) of the same compound?
**A.** The value was 16.7 ± 3.2%.

**Q.** What about the “suppression of the release of O2- (in words)” value ([4]; 0.001-0.1 mM) of the same compound?
**A.** Its value is “suppressed the release of O2^- in a concentration-dependent manner”.

**Q.** And the inhibition at 1 µM ([4]; Cavia porcellus, Leukocyte, 0.001 mM)?
**A.** Its inhibition at 1 µM is 12%.

**Q.** And the inhibition at 10 µM ([4]; Cavia porcellus, Leukocyte, 0.01 mM)?
**A.** Its inhibition at 10 µM is 56%.

**Q.** What about the inhibition at 100 µM ([4]; Cavia porcellus, Leukocyte, 0.1 mM) of the same compound?
**A.** Its inhibition at 100 µM is 93%.
